Laboratory results reported in PubChem BioAssay (NCI).
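Values below derive from 48-hour exposures of cells grown in 96-well plates, with endpoints linearly interpolated between the two concentrations bracketing the appropriate inhibition level. At the GI50, growth is halved. TGI marks complete inhibition of growth.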

Tests used:
Test in all cases: NCI-60 cell line screen, 48 h
[1] = system: KM12 colon
[2] = system: K-562 leukemia
[3] = system: SNB-75 CNS
[4] = system: IGROV1 ovarian
[5] = system: SF-295 CNS
[6] = system: A549 NSCLC
[7] = system: OVCAR-5 ovarian
[8] = system: SNB-19 CNS
[9] = system: MCF7 breast
[10] = system: RPMI-8226 leukemia

| SMILES | TGI [1] [µM] | TGI [2] [µM] | TGI [3] [µM] | TGI [4] [µM] | TGI [5] [µM] | TGI [6] [µM] | TGI [7] [µM] | TGI [8] [µM] | TGI [9] [µM] | TGI [10] [µM] | GI50 [1] [nM] | GI50 [2] [nM] | GI50 [3] [nM] | GI50 [4] [nM] | GI50 [5] [nM] | GI50 [6] [nM] | GI50 [7] [nM] | GI50 [8] [µM] | GI50 [10] [nM] |
| --- | --- | --- | --- | --- | --- | --- | --- | --- | --- | --- | --- | --- | --- | --- | --- | --- | --- | --- | --- |
| Nc1nc2c(ncn2C2OC(CO)C(O)C2N)c(=O)[nH]1 (stereo not given) | > 100 | > 100 | > 100 | > 100 | > 100 | > 100 | > 100 | > 100 | – | – | – | – | – | – | – | – | – | – | – |
| Nc1[nH]c(=O)ncc1F | > 100 | > 100 | – | > 100 | > 100 | > 100 | > 100 | > 100 | > 100 | > 100 | – | – | – | – | – | – | – | – | – |
| O=C(N/N=C(/c1nc2ccc(Cl)cc2[nH]c1=O)C(O)c1ccc(Cl)cc1Cl)c1ccncc1 (stereo not given) | > 100 | > 100 | > 100 | > 100 | > 100 | > 100 | > 100 | > 100 | – | > 100 | – | – | – | – | – | – | – | – | – |
| Cc1nc(C)c(C(=O)Nc2cccc3c2C(=O)NC3=O)cc1C(=O)Nc1cccc2c1C(=O)NC2=O | > 100 | > 100 | > 100 | > 100 | > 100 | > 100 | > 100 | > 100 | – | > 100 | – | – | – | – | – | – | – | – | – |
| COC(=O)C1=C(OC)c2cc3c(cc2C(c2cc(OC)c(OC)c(OC)c2)C1C(=O)OC)OCO3 (stereo not given) | > 100 | > 100 | > 100 | > 100 | > 100 | > 100 | > 100 | – | – | > 100 | – | – | – | – | – | – | – | – | – |
| O=C1C2c3[nH]c4ccccc4c3[C@@H]3CCCCCCCCCCC3C2C(=O)N1c1ccccc1 (stereo not given in full) | 42 | 29.5 | 6.44 | 43.6 | 42.1 | 62.4 | > 100 | 30.3 | – | > 100 | – | – | – | – | – | – | – | – | – |
| CCCCCCCCCCCC(=O)OCC1OC(n2cc(F)c(=O)[nH]c2=O)C(NC(=O)OCc2ccccc2)C(O)C1O (stereo not given) | 42.9 | 52.3 | 28.1 | > 100 | 63.9 | 43.2 | – | 75.5 | – | 53.5 | – | – | – | – | – | – | – | – | – |
| COc1ccc(/C=C2\Cc3ccccc3C2=O)cc1OC | > 100 | > 100 | – | > 100 | > 100 | > 100 | > 100 | > 100 | – | > 100 | – | – | – | – | – | – | – | – | – |
| CCOC(=O)C1N(S(=O)(=O)c2ccc(C)cc2)CCC12c1ccccc1N(C(C)=O)C2C(/C=C/C(=O)OC)=C/C(=O)OC (stereo not given) | > 100 | > 100 | > 100 | > 100 | > 100 | > 100 | > 100 | > 100 | – | > 100 | – | – | – | – | – | – | – | – | – |
| N#Cc1cccc(NC(=O)c2ccc(C(=O)O)c(C(=O)c3ccc(C(=O)O)c(C(=O)Nc4cccc(C#N)c4)c3)c2)c1 | > 100 | > 100 | > 100 | > 100 | > 100 | > 100 | > 100 | > 100 | – | > 100 | – | – | – | – | – | – | – | – | – |
| O=C(c1cc(O)ccc1O)c1ccccc1C(Cl)(Cl)Cl | > 100 | > 100 | > 100 | > 100 | > 100 | > 100 | > 100 | > 100 | – | > 100 | – | – | – | – | – | – | – | – | – |
| Cn1cnc([N+](=O)[O-])c1Sc1ccccn1 | > 100 | > 100 | > 100 | > 100 | > 100 | > 100 | > 100 | > 100 | – | > 100 | – | – | – | – | – | – | – | – | – |
| CCN1CCN(c2nc(NNC(=O)Cc3ccccc3)nc(N3CCN(C(c4ccccc4)c4ccccc4)CC3)n2)CC1 | 4.35 | 4.38 | 4.36 | 5.02 | 3.99 | 5.23 | 5.63 | 11.7 | – | 4.31 | 2070 | 1800 | 1780 | 2030 | 2010 | 2170 | 2240 | 3.35 | 1790 |
| CC1=NNC(=NCCN(C)C)C/C1=C/c1ccccc1Cl | > 100 | – | > 100 | > 100 | > 100 | > 100 | > 100 | > 100 | – | – | – | – | – | – | – | – | – | – | – |
| COC(=O)/C=C/C(=O)C1C(C(=O)OC)C2(C(=O)OC)CCC1(C(=O)OC)N2 (stereo not given) | > 100 | > 100 | – | > 100 | > 100 | > 100 | > 100 | > 100 | – | > 100 | – | – | – | – | – | – | – | – | – |
| O=C(c1ccccc1)C1C(C(=O)c2ccccc2)N1Cc1ccccc1 (stereo not given) | > 100 | > 100 | 57.1 | > 100 | > 100 | > 100 | > 100 | > 100 | – | > 100 | – | – | – | – | – | – | – | – | – |
| Cc1cc(C)cc(-n2c3nc(=O)n(C)c(=O)c-3nc3ccccc32)c1 | > 100 | 65.3 | > 100 | 94.6 | > 100 | 70.6 | 93.1 | 50.9 | – | > 100 | – | – | – | – | – | – | – | – | – |
